Here are results for 1 compound from patent publication US20240226107A1, “UBIQUITIN-SPECIFIC PROTEASE 1 (USP1) INHIBITOR” (SIMCERE ZAIMING PHARMACEUTICAL CO., LTD., priority 2021, published 2024).

Values after ≈ are worked out from the molar mass of the structure shown.

In one data set the target is CYP2C19 (Homo sapiens (Human), UniProt P33261). Nature of the data set: CYP enzyme inhibition in pooled human liver microsomes (S-mephenytoin). It is filed as in vitro ADME. The protocol: (§1) Typical substrate metabolic responses of five major human CYP subtypes (CYP1A2, CYP2C9, CYP2C19, CYP2D6, CYP3A4) were evaluated using 150-donor pooled human liver microsomes (purchased from Corning, Cat. No.: 452117). The influence of different concentrations of each compound to be tested on metabolic responses of phenacetin (CYP1A2), diclofenac sodium (CYP2C9), S-mephenytoin (CYP2C19), bufuralol hydrochloride (CYP2D6), and midazolam (CYP3A4) was determined by liquid chromatography-mass spectrometry (LC/MS/MS). […] Then 200 μL of acetonitrile solution containing 3% formic acid and 40 nM internal standard verapamil was added and centrifuged at 4000 rpm for 50 min. The mixture was cooled on ice for 20 min and centrifuged at 4000 rpm for 20 min to precipitate the protein. Then 200 μL of supernatant was analyzed by LC-MS/MS. The peak area was calculated from the chromatogram. The residual activity ratio (%) was calculated according to the following equation: Peak area ratio=metabolite peak area/internal standard peak area Residual activity ratio (%)=peak area ratio of compounds-to-be-tested group/peak area ratio of blank group The half inhibitory concentration (IC50) for CYP was calculated by Excel XLfit 5.3.1.3.
CYP2C19, sequence (P33261 whole entry): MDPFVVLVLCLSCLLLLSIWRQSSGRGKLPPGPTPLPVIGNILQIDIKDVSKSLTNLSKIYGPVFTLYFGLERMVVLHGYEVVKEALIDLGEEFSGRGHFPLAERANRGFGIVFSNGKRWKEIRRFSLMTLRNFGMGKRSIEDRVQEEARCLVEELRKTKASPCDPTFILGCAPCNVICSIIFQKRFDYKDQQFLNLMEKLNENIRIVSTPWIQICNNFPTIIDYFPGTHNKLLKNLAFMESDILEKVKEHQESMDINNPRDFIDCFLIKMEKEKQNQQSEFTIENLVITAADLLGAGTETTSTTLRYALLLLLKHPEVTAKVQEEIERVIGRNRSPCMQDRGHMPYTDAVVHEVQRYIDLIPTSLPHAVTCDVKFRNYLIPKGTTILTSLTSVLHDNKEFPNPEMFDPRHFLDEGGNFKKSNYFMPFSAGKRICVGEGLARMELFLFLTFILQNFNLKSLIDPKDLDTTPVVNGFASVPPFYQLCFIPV
A general note: Liver microsomes are a subcellular fraction often used to study metabolism.

Data set [1] can be described thus: Solubility (PBS pH 7.4) of compounds from DMSO solution. It is filed as physicochemical. The conditions noted are these: aqueous buffer, kinetic from dmso stock, 10 mM DMSO solution into PBS pH 7.4, 25° C., read-out: Calculated solubility. The protocol: The solubility (PBS pH 7.4) of a compound to be tested was determined by LC/MS/MS. 6 μL of 10 mM DMSO solution of the compound to be tested was mixed with 194 μL of DMSO to prepare 300 μM compound solution. In 490 μL of water and acetonitrile (1:1) containing an internal standard, 5 μL of the solution and 5 μL of PBS pH 7.4 solution were mixed to prepare 3 μM standard concentration solution of the sample to be tested. The dilution factor of the standard solution can be adjusted according to the strength of response signals in LC/MS.
To 485 μL of PBS pH 7.4 solution, 15 μL of 10 mM DMSO solution of the compound to be tested was added. […] After shaking, the stir bar was removed, and the sample was transferred to a filter plate and filtered using a vacuum manifold. In 490 μL of water and acetonitrile (1:1) containing an internal standard, 5 μL of filtrate and 5 μL of PBS pH 7.4 solution were mixed to prepare a solution to be tested. The dilution factor can be adjusted according to the solubility value and the strength of response signals in LC/MS.
The resulting samples were determined by LC/MS/MS. The sample solubility was calculated from peak areas of the solution of the compound to be tested and the standard concentration solution, according to the following equation:
[formula] • [Sample] is the solubility of the sample to be tested; • Area ratiosample is the ratio of the peak area of sample in the sample to be tested to the peak area of the internal standard; • INJ VOL STD is the injection volume of the standard concentration solution; • DFsample is the dilution factor of the solution of the sample to be tested; • [STD] is the concentration of the standard concentration solution; • INJ VOLsample is the injection volume of the solution of the sample to be tested; and • Area ratio STD is the ratio of the peak area of sample in the standard concentration solution to the peak area of the internal standard.

A further data set addresses CYP1A2 (Homo sapiens (Human), UniProt P05177). Nature of the data set: CYP enzyme inhibition in pooled human liver microsomes (phenacetin). The format is in vitro ADME. The protocol: as §1
The nature of data set [2]: Metabolic stability in vitro in human hepatocytes. It is filed as in vitro ADME. The conditions noted are these: read-out: Intrinsic clearance. The protocol:
The concentration of each compound in the reaction system was measured by LC/MS/MS to calculate the intrinsic clearance of the compounds to be tested, and evaluate the metabolic stability in vitro in human hepatocytes.
To the incubation plate, 198 μL of 0.5×10^6 cells/mL human hepatocyte mixture and 2.0 μL of 100 μM compound to be tested or positive control were added to initiate reaction. Incubation was performed at 900 rpm at 37° C. […] Then the mixture was vortex-mixed for 5 min. […] Then 100 μL of supernatant of each compound was transferred to a 96-well sample plate, and 100 μL of purified water was added to dilute the sample.
The resulting samples were quantified by ion chromatograms. The residual rate was calculated from peak areas of the compounds to be tested or the positive control. The slope k was determined using Microsoft Excel by linear regression of natural logarithm of the residual rate to the incubation time. The intrinsic clearance (in vitro CLint, μL/min/10^6 cells) was calculated from the slope value according to the following equation: […]
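Wherever GI50 is given: MDA-MB-436 proliferation over 7 days with compound, viability read as ATP luminescence (CellTiter-Glo), inhibition relative to DMSO-only wells, day 0 signal as background, GI50 from four-parameter fit.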

CYP1A2, sequence (P05177 whole entry): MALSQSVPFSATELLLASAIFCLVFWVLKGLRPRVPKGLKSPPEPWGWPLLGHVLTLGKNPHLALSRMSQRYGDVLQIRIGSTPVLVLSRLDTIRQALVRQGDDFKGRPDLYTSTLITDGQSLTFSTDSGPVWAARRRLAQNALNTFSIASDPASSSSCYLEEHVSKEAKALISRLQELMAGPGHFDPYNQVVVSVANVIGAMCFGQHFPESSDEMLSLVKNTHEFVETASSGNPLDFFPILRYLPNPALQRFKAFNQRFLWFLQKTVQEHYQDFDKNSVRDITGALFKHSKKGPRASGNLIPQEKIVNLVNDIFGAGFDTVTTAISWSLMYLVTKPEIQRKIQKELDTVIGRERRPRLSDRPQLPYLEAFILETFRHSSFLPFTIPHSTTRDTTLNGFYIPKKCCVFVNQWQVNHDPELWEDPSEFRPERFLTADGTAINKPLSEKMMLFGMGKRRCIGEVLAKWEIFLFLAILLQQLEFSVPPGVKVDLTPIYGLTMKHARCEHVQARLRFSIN
Description for MDA-MB-436 cells: Assay based on CellTiter-Glo luminescent cell viability assay system.
The assay kit (CellTiter-Glo® Luminescent Cell Viability Assay) was purchased from Promega, with Cat. No. of G7573, and was stored at −30° C. after subpackage. The kit is a homogeneous assay method for assaying the number of viable cells in a culture based on quantitative determination of ATP. The kit produces a luminescence signal proportional to the amount of ATP present, and the amount of ATP is directly proportional to the number of cells in the culture.
The cultured cells were trypsinized, collected and centrifuged, then resuspended at an adjusted concentration in a culture solution (DMEM+10% FBS), and cultured overnight on a 384-well plate (400 cells/20 μl/well) in a cell incubator with 5% CO2 at 37° C. An ECHO instrument was used to added the compound and pure DMSO onto each well of the 384-well plate. The total volume of the compound and DMSO is 100 nL, and the instrument obtains gradient diluted sample concentrations through different ratios. To each well, 30 μL of culture solution was added, and after mixing by centrifugal oscillation and re-centrifugation, the cells were cultured in a cell incubator for 7 days (one column of cells was subjected to CTG assay on the day of dosing). After day 7, 25 μL of CTG assay solution was added to each well, and after mixing by centrifugal oscillation and re-centrifugation, the cells were placed at room temperature away from light for 10 min. In terms of chemiluminescence signals, an Envision plate reader (PerkinElmer, emission wavelength: 400-700 nm) was used to measure a signal in each well. The chemiluminescence value [RLU]cpd on day 7 was obtained for the treatment group, the chemiluminescence value [RLU]cell on day 7 was obtained for the non-treatment group (given DMSO only), and the chemiluminescence value [RLU]background on day 0 was obtained for the parallel non-treatment group (given DMSO only) by CTG assay on day 0. […] In the following equation, x represents the concentration of the compound in a logarithmic form; and F(x) represents an effect value (inhibition rate of proliferation at the concentration): F(x)=(A+((B−A)/(1+((C/x)^D)))). A, B, C, and D are four parameters.

In the data set on MDA-MB-436 cells, `COc1ncnc(C2CC2)c1-c1ncc2c(n1)N(Cc1ccc(-c3nc(C(F)(F)F)cn3C)cc1)CC(=O)N2C` [Compound 11, 2-(4-cyclopropyl-6-methoxypyrimidin-5-yl)-5-methyl-8-(4-(1-methyl-4-(trifluoromethyl)-1H-imidazol-2-yl)benzyl)-7,8-dihydropteridin-6(5H)-one] yielded a GI50 of 0.0328 µM. Also, the IC50 against CYP2C19 is 17.1 µM; against CYP1A2, more than 30 µM. Further, the solubility at 2 h in data set [1] is 214 µM (≈ 118 µg/mL). In addition, in data set [2], the hepatocyte CLint at 1 μM was less than 1 µL/min/1e6 cells.

As usually defined, the GI50 is the concentration giving 50% growth inhibition. The term IC50 denotes the point on the concentration scale where inhibition reaches its midpoint. For orientation: solubility means how much of the substance goes into solution per volume.
